Experimental data published in article PMC8599359 (Molecular Neurobiology, 2021).

Key:
MMP-1 = target: T1, MMP-1 (Homo sapiens, UniProt P03956); assay: Fluorometric substrate assay (MMP inhibitor profiling kit); type: biochemical; conditions: human recombinant MMP-1, 60 min preincubation, four-parameter fit
T1 construct: purchased Enzo life sciences BML-AK308
Protocol: (§1) Kit contained a panel of ten MMPs and a quenched fluorogenic substrate OMNIMMP® RED. Composition of a quenched fluorogenic substrate was TQ3-GABA-Pro-Cha-Abu-Smc-His-Ala-Dab(6’-TAMRA)-Ala-Lys-NH2 [TQ3 = quencher; GABA = 4-aminobutyric acid; Cha = L-cyclohexylalanine; Abu = 2-aminobutyric acid; Smc = S-methyl-L-cysteine; Dab = 2,4-diaminobutyric acid; 6’-TAMRA = 6’-tetramethylrhodamine]. Experiment was performed as per instructions provided in the manufacturer’s manual. The assays were performed in a 96-well, black, flat, microplate format. The compound NNGH was provided as a prototypic control inhibitor. […] Untreated MMPs were used as control. The experiment was performed in biological triplicates. After 60-min incubation, fluorogenic substrate OMNIMMP® RED was added to each reaction/well to start the reaction. The plate was continuously read at Ex/Em = 545/576 nm (cutoff at 570 nm) for 30 min with 1-min time intervals at constant temperature, 37 °C, using Molecular Devices SpectraMax M3 plate reader with SoftMax Pro 6.2 software.

MMP-12 = target: T2, MMP-12 (Homo sapiens, UniProt P39900); assay: as above; type: biochemical; conditions: human recombinant MMP-12, 60 min preincubation, four-parameter fit
T2 construct: purchased Enzo life sciences BML-AK308
T2 sequence (P39900 106-470): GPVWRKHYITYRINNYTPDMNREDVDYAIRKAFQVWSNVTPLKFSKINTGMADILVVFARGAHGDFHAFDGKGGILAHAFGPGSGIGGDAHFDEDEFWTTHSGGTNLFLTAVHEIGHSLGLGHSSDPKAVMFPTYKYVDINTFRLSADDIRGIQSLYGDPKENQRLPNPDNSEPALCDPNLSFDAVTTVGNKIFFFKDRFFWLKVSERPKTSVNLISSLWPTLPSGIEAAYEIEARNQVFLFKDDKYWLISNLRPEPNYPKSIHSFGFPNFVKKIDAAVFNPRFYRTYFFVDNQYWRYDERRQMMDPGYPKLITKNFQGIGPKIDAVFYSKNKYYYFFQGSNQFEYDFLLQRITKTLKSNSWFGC
Protocol: as §1

MMP-13 = target: T3, MMP-13 (Homo sapiens, UniProt P45452); assay: as above; type: biochemical
T3 construct: purchased Enzo life sciences BML-AK308
Protocol: as §1

MMP-14 = target: T4, MMP-14 (Homo sapiens, UniProt P50281); assay: as above; type: biochemical
T4 construct: purchased Enzo life sciences BML-AK308
Protocol: as §1

MMP-19 = target: T5, MMP-19 (Homo sapiens, UniProt Q99542); assay: as above; type: biochemical; conditions: human recombinant MMP-19, 60 min preincubation, four-parameter fit
T5 construct: purchased Enzo life sciences BML-AK308
T5 sequence (Q99542 98-508): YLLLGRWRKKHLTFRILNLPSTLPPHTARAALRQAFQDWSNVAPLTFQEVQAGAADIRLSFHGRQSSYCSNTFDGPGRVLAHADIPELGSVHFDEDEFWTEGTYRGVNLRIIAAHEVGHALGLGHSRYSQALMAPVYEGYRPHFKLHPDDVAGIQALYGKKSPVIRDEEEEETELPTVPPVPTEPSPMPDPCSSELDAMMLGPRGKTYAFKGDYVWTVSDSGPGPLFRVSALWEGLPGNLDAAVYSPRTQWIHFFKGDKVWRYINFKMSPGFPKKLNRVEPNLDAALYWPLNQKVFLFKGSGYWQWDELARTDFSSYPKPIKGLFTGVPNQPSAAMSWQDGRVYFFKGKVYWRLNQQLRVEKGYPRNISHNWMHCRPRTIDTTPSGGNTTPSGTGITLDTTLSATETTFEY
Protocol: as §1

MMP-3 = target: T6, MMP-3 (Homo sapiens, UniProt P08254); assay: as above; type: biochemical; conditions: human recombinant MMP-3, 60 min preincubation, four-parameter fit
T6 construct: purchased Enzo life sciences BML-AK308
T6 sequence (P08254 100-477): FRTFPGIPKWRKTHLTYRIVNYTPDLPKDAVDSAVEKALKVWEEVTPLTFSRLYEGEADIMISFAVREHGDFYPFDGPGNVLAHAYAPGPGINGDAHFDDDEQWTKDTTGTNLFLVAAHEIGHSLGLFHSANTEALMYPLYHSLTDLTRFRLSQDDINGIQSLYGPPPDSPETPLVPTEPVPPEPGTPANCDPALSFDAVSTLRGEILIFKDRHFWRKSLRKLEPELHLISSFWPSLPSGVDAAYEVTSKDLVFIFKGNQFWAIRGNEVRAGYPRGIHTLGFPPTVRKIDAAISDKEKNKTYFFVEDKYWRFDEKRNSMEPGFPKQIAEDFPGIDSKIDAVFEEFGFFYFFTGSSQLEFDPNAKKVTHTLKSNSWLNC
Protocol: as §1

MMP-7 = target: T7, MMP-7 (Homo sapiens, UniProt P09237); assay: as above; type: biochemical; conditions: human recombinant MMP-7, 60 min preincubation, four-parameter fit
T7 construct: purchased Enzo life sciences BML-AK308
T7 sequence (P09237 95-267): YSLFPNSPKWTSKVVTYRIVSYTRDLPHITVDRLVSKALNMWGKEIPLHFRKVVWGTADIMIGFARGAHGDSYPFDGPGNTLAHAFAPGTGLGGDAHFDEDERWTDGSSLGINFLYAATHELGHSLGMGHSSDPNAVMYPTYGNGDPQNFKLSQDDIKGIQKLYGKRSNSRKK
Protocol: as §1

MMP-8 = target: T8, MMP-8 (Homo sapiens, UniProt P22894); assay: as above; type: biochemical
T8 construct: purchased Enzo life sciences BML-AK308
T8 sequence (P22894 101-467): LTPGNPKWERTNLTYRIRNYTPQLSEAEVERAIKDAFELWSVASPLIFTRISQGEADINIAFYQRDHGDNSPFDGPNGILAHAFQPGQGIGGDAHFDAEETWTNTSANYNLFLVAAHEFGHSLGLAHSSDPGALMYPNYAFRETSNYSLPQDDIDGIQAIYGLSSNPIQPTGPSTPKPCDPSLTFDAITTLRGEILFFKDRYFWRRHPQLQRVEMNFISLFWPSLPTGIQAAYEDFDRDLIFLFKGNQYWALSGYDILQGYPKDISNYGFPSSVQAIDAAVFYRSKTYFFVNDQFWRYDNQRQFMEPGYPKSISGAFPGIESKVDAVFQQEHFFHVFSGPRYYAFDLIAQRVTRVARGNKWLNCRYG
Protocol: as §1

[1] = Embryo phenotype assessments; type: in vivo, mouse; conditions: female, C3H/HeJ, mouse, in vivo, oral; GD 16.5, 50 mg/kg/day; read-out: Total viable embryos (%)
Text: (§2) For all animal experiments, C3H/HeJ (10–12 weeks of age, male and female) were purchased from the Jackson Laboratory (Bar Harbor, ME), and were housed in microisolator cages containing autoclaved corncob bedding, and maintained on a 12‐h light‐dark cycle in climate‐controlled laboratory animal facilities approved by the University of Nebraska Medical Center Institutional Animal Care and Use Committee (IACUC). Mice were given free access to irradiated rodent feed (TD. 180,911, Envigo Teklad diet, Madison, WI) and sterile water. Animals were acclimated to the environment for approximately 7–14 days to determine that they were healthy based on observed behavior and weight gain. A female was placed with a male overnight for the purpose of timed matings. The following morning males were removed from the cages and positive vaginal plugs were identified. […] The time of conception was considered to be midnight on the evening of the mating. Treatment of plugged females was started at the morning of the day of plug detection (gestation day (GD) 0.5). […] Pregnant dams were randomly assigned to DTG or vehicle (control) group. Weight gain in dams was measured on GD 0.5, 5.5, 10.5, and 15.5. At GD 16.5, dams were humanely euthanized, and embryos and placenta were harvested. Embryos were evaluated for NTDs. At the time of harvest, the total number of implants (litter size, resorption rates, or viable embryos) was recorded for each pregnancy. Further, whole brain tissues from normal viable embryos were isolated and processed for examination of MMP expression and activity.

[2] = system: pregnant C3H/HeJ mice, embryos; assay: Embryo phenotype assessments; type: in vivo, mouse
Text: as §2

[3] = system: C3H/HeJ mice pups, hippocampus; assay: Magnetic resonance spectroscopy (1H MRS) of pups; type: in vivo, mouse
Protocol: After DTI measurements, the same animals were scanned by ^1H MRS to measure metabolite concentrations. N-Acetylaspartate (NAA), total choline (tCho), and total creatine (tCre) were measured in HI region. Animals from both groups, DTG and control, were scanned. SemiLASER localization with timing parameters (TE/TR = 40/4000 ms, 576 averages, 2048 points) was used to obtain MRS data. Voxel was located on HI. All first- and second-order shim terms were automatically adjusted using MAPSHIM® (Bruker, Billerica, MA). A final shim performed manually, if necessary, to achieve a water line width of 10–15 Hz. The water signal was suppressed by variable power radiofrequency (RF) pulses with optimized relaxation delays (VAPOR). MRS data were quantified using LCModel (LCMODEL Inc., CA). Results were expressed as a percentage of the sum of all 3 metabolites as a semi-quantitative method for reporting metabolite concentrations in institutional units (I.U.). Glycerophosphocholine and phosphocholine were added and reported as total choline-containing compounds.

HIV-1 integrase = conditions: read-out: IC50 as INSTI; cited from earlier work
[4] = GD 16.5, 50 mg/kg/day, of 103 viable
[5] = GD 16.5, 50 mg/kg/day, of 130 implants

T1 sequence (P03956 100-469): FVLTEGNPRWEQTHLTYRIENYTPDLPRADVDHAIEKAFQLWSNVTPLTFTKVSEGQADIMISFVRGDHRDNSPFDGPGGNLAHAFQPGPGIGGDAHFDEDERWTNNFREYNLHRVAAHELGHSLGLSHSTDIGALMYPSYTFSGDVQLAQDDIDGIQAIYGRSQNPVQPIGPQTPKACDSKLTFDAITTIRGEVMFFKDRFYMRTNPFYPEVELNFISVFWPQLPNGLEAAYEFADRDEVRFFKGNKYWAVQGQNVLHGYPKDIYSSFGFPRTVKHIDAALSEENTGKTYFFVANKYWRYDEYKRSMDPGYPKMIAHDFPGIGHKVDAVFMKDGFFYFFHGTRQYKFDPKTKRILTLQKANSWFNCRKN

For `C[C@@H]1CCO[C@H]2Cn3cc(C(=O)NCc4ccc(F)cc4F)c(=O)c(O)c3C(=O)N12` [DTG, Dolutegravir], the IC50 (MMP-1) was 83.9 µM, the IC50 (MMP-12) was 131 µM and the “inhibitory effect compared to doxycycline” value (MMP-13; MMP-13, 20 µM) was “higher inhibitory effect”. For the same compound, the IC50 (MMP-13; human recombinant MMP-13, 60 min preincubation, four-parameter fit) was 36.5 µM, the “inhibitory effect compared to doxycycline” value (MMP-14; MMP-14, 20 µM) was “higher inhibitory effect” and the IC50 (MMP-14; human recombinant MMP-14, 60 min preincubation, four-parameter fit) was 10.5 µM. The IC50 (MMP-19) was 54 µM, the IC50 (MMP-3) was 60.3 µM and the IC50 (MMP-7) was 309 µM. The “inhibitory effect compared to doxycycline” value (MMP-8; MMP-8, 20 µM) was “higher inhibitory effect”, the IC50 (MMP-8; human recombinant MMP-8, 60 min preincubation, four-parameter fit) was 12.1 µM and the viability [1] was 79.2%. The “maternal body weight gain during gestation” value ([2]; 50 mg/kg/day oral GD 0.5-15.5, DTG vs control) was “No differences”, the Abnormal/litter ([2]; GD 16.5, 50 mg/kg/day) was 0.05 and the “Implants/litter (mean litter size)” value ([2]; GD 16.5, 50 mg/kg/day) was 7.6. The Resorptions/litter ([2]; GD 16.5, 50 mg/kg/day) was 1.5, the “Total resorptions (%)” value ([2]; GD 16.5, 50 mg/kg/day) was 20.76% and the Viable embryos/litter ([2]; GD 16.5, 50 mg/kg/day) was 6.05. For the same compound, the Total implants ([2]; GD 16.5, 50 mg/kg/day, 17 litters) was 130, the “Viable embryos abnormal, exencephaly (number)” value [2, 4] was 1 and the “Viable embryos normal (number)” value [2, 4] was 102. For the same compound, the “Total resorptions (number)” value [2, 5] was 27, the “Total viable embryos (number)” value [2, 5] was 103 and the “NAA levels in hippocampus vs control” value ([3]; PND 28-34, all pups) was “significantly reduced”. For the same compound, the “tCho levels in hippocampus vs control” value ([3]; PND 28-34, all pups) was “significant increase”, the “tCre (internal reference) in hippocampus vs control” value ([3]; PND 28-34, all pups) was “No differences” and the “NAA in hippocampus vs control” value ([3]; female pups) was “significantly reduced”. For the same compound, the IC50 (HIV-1 integrase) was 0.0027 µM.
